Measured values from patent US20240083872A1, “CYCLIC AMINE DERIVATIVES HAVING SEROTONIN RECEPTOR BINDING ACTIVITY” (Shionogi & Co., Ltd., priority 2020, published 2024).
Where two headings read alike, the source gives them in different places.

Experiments:
[1] = target: human recombinant 5-HT2A receptor (Homo sapiens (Human), UniProt P28223); assay: 5-HT2A receptor binding inhibition test ([3H]-Ketanserin); details: Jump-In HEK cell membrane
In short: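 HEK cell membranes expressing human recombinant receptor were incubated with [3H]-ketanserin near its Kd in Tris-HCl 50 mmol/L pH 7.4 buffer (0.1% BSA) for 1.5 h at 25° C, then filtered on GF/B. Non-specific binding was defined with […] serotonin; Ki came from dose-response curves.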

[2] = target: human ether-a-go-go related gene (hERG) channel (Homo sapiens (Human), UniProt Q12809); assay: hERG test (FluxOR potassium channel assay, FLIPR); format: cell-based; details: CHO cells expressing hERG channel, thallium flux fluorescence
Chain of human ether-a-go-go related gene (hERG) channel (Q12809 whole entry): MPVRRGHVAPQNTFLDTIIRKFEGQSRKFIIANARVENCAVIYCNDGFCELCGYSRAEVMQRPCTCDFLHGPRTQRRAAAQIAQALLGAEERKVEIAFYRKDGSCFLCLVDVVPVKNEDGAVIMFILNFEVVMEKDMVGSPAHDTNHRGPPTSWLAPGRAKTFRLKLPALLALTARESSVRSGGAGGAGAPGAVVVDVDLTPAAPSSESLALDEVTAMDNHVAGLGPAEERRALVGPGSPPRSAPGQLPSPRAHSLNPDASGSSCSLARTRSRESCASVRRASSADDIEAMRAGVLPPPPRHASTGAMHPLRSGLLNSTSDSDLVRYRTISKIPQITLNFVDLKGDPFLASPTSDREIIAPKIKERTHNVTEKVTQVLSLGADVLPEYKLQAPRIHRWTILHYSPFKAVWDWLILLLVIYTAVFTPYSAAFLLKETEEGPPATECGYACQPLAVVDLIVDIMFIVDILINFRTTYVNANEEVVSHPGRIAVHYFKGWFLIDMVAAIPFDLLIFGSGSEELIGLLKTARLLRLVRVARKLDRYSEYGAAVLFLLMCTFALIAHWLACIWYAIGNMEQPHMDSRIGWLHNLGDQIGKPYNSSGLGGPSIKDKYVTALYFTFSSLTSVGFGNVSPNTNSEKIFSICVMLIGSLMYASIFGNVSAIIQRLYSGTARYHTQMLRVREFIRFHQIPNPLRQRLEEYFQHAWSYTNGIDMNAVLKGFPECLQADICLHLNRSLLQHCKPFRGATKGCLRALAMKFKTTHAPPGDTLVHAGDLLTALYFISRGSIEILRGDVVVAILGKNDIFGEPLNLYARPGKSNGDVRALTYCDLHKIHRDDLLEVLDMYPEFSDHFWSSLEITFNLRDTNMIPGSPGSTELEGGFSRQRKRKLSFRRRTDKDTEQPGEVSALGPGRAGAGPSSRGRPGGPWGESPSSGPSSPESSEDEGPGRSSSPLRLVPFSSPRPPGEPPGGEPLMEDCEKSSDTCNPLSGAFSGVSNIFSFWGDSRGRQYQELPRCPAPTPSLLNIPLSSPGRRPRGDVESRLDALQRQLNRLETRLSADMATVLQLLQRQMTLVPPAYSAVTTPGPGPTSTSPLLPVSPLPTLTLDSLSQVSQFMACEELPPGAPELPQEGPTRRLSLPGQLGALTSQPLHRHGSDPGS
Method: Test Example 3-2: hERG Test
For the purpose of evaluating risk of an electrocardiogram QT interval prolongation of the compound of the present invention, effects of the compound were studied by evaluating the activity of potassium channel using CHO cells expressing human ether-a-go-go related gene (hERG) channel.
Evaluation was performed using a FluxORII Green Potassium IonCgannel Assay kit (Invitrogen: Molecular Probes).
Cells were seeded in a 384-assay plate (8000 cells/well/40 μL) and incubated (37° C., 5% CO2) overnight. After replacing the medium with a Wash buffer (1×HBSS, 20 mM HEPES) with a microplate washer, a fluorescent indicator was added to the medium and allowed to incubate (37° C., 5% CO2) for 1 hour for incorporation of the fluorescent indicator into cells.
A cell plate was placed on a cell-based kinetic assay system FLIPR (Molecular Devices, LLC.), and the compound was added to the cells so as to have a desired concentration and reacted for 10 minutes. When a mixed solution of potassium and thallium as a stimulator was added thereto, the potassium channel was opened, and thallium that flowed into the cells bound to the fluorescent indicator, so that the intracellular fluorescence signal increased, and the potassium channel current was detected as a fluorescence signal. […] Then, the inhibition rate was calculated from the signal intensity at each concentration. IC50 was calculated from the inhibition rate at each concentration.

[3] = target: human recombinant 5-HT2C receptor (Homo sapiens (Human), UniProt P28335); assay: 5-HT2C receptor binding inhibition test ([3H]-Mesulergine); details: Jump-In HEK cell membrane, [3H]-Mesulergine
Chain of human recombinant 5-HT2C receptor (P28335 33-458): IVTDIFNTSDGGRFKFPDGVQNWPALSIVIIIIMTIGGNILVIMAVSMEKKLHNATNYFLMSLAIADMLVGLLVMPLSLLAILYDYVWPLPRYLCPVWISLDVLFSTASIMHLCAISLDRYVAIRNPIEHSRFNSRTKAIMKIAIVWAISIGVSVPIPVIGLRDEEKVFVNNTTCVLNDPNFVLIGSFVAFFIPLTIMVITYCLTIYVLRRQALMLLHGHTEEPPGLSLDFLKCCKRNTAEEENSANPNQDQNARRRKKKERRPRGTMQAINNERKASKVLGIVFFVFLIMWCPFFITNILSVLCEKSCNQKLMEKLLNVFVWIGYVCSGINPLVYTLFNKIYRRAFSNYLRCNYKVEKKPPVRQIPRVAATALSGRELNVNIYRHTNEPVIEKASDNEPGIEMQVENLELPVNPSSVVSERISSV

[4] = Metabolic stability test; format: in vitro ADME; details: human hepatic microsomes, 0.5 μmol/L, 30 minutes, 37° C., NADPH (oxidative reaction)
Method: Test Example 6-2: Metabolic Stability Test
Using commercially available pooled human hepatic microsomes, a compound according to the present invention was reacted for a constant time, and a remaining rate was calculated by comparing a reacted sample and an unreacted sample, thereby, a degree of metabolism of the compound according to the present invention in liver was evaluated.
A reaction was performed (oxidative reaction) at 37° C. for 0 minutes or 30 minutes in the presence of 1 mmol/L NADPH in 0.2 mL of a buffer (50 mmol/L Tris-HCl pH 7.4, 150 mmol/L potassium chloride, 10 mmol/L magnesium chloride) containing 0.5 mg protein/mL of human hepatic microsomes. After the reaction, 70 μL of the reaction solution was added to 140 μL of a solution of methanol/acetonitrile=1/1 (v/v), mixed and centrifuged at 3000 rpm for 15 minutes. The compound according to the present invention in the supernatant was quantified by LC/MS/MS or Solid Phase Extraction (SPE)/MS, and a remaining rate of the compound according to the present invention after the reaction was calculated, letting a compound amount at 0 minute reaction time be 100%.

[5] = read-out: human serotonin 5-HT2C receptor binding inhibitory activity, Ki value
[6] = read-out: human serotonin 5-HT2A receptor binding activity, Ki value

Chain of human recombinant 5-HT2A receptor (P28223 whole entry): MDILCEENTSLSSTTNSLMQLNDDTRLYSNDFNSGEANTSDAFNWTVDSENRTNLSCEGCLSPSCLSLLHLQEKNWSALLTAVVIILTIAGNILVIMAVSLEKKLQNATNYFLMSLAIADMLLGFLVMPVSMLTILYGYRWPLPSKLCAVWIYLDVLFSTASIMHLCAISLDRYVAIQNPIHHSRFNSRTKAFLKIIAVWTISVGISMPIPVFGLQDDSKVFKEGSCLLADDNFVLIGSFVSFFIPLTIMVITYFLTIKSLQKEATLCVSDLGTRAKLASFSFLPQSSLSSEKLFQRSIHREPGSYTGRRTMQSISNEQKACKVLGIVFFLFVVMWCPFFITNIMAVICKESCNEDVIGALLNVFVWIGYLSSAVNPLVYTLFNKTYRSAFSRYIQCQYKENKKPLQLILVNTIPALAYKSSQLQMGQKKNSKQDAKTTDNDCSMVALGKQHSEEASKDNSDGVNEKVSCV

Compound	Ki ([1]; read-out: h-5-HT2A Ki)	Ki ([3]; read-out: h-5-HT2C Ki)	remaining rate of the compound [4]	Ki [3, 5]	Ki [1, 6]	IC50 [2]
CC(C)COc1ccc(CN(Cc2ccc(F)cn2)C(=O)NC2CCN(C)CC2)cc1 [Compound I-016]	< 10 nM	< 10 nM	99.6%	–	–	–
CC(C)COc1ccc(CN(Cc2ccn(C)n2)C(=O)NC2CCN(C)CC2)cc1 [Compound I-043]	–	–	85.0%	3.07 nM	2.14 nM	–
Cc1nc(CN(Cc2ccc(OCC(C)C)cc2)C(=O)NC2CCN(C)CC2)co1 [Compound I-077]	< 10 nM	< 10 nM	85.3%	–	–	–
CCCCOc1ccc(CN(Cc2coc(C)n2)C(=O)CC2CCN(C)CC2)cc1F [Compound I-123]	–	–	–	1.39 nM	0.506 nM	–
CC(C)COc1ccc(CN(Cc2ccn(C)n2)C(=O)N[C@H]2CCNCC23CC3)cc1 [Compound I-028]	< 10 nM	< 10 nM	90.2%	–	–	–
CC(C)COc1ccc(CN(Cc2cocn2)C(=O)NC2CCN(C)CC2)cc1 [Compound I-035]	< 10 nM	10 to 100 nM	–	–	–	–
COc1ccc(CN(Cc2ccn(C)n2)C(=O)NC2CCN(C)CC2)c(F)c1 [Compound I-013]	10 to 100 nM	10 to 100 nM	–	–	–	–
Cc1ccc(CN(Cc2ccn(C)n2)C(=O)NC2CCN(C)CC2)cc1 [Compound I-038]	10 to 100 nM	10 to 100 nM	–	–	–	–
Cc1nc(CN(Cc2ccc(CCC(F)(F)F)cc2)C(=O)NC2CCN(C)CC2)co1 [Compound I-105]	< 10 nM	< 10 nM	–	–	–	–
CC(C)COc1ccc(CN(Cc2ccc(F)cn2)C(=O)N[C@@H]2CCNC[C@@H]2F)cc1 (single isomer, unassigned) [Compound I-022]	10 to 100 nM	10 to 100 nM	–	–	–	–
CC(C)Oc1ccc(CN(Cc2ccn(C)n2)C(=O)NC2CCN(C)CC2)cc1 [Compound I-047]	10 to 100 nM	10 to 100 nM	–	–	–	–
Cc1nc(CN(Cc2ccc(OCC(C)C)cc2)C(=O)N[C@H]2CCN(C)C[C@H]2F)co1 [Compound I-078]	< 10 nM	< 10 nM	–	–	–	–

Second part, led by results:

Ki ([1]; read-out: h-5-HT2A Ki)	Ki ([3]; read-out: h-5-HT2C Ki)	remaining rate of the compound [4]	Ki [3, 5]	Ki [1, 6]	Compound	IC50 [2]
10 to 100 nM	–	–	–	–	Cc1cc(CN(Cc2ccc(OCC(C)C)cc2)C(=O)OC2CCN(C)CC2)nn1C [Compound I-083]	> 52000 nM
< 10 nM	< 10 nM	80.0%	–	–	Cc1nc(CN(Cc2ccc(OCC(F)(F)C(F)(F)F)cc2)C(=O)NC2CCN(C)CC2)co1 [Compound I-088]	–
10 to 100 nM	10 to 100 nM	–	–	–	CC(C)COc1ccc(CN(Cc2ccn(C)n2)C(=O)OC2CCN(C)CC2)cc1 [Compound I-082]	> 52000 nM
< 10 nM	< 10 nM	–	–	–	Cc1nc(CN(Cc2ccc(OCC(C)C)cc2)C(=O)OC2CCN(C)CC2)co1 [Compound I-081]	> 52000 nM
–	–	97.3%	0.412 nM	0.642 nM	CCCCOc1ccc(CN(Cc2cnn(C)n2)C(=O)NC2CCN(C)CC2)c(F)c1 [Compound I-102]	–
–	–	75.5%	0.241 nM	0.503 nM	CCCCOc1ccc(CN(Cc2coc(C)n2)C(=O)NC2CCN(C)CC2)cc1 [Compound I-086]	–
< 10 nM	< 10 nM	–	–	–	CCCCOc1ccc(CN(Cc2coc(C)n2)C(=O)CC2CCN(C)CC2)cc1 [Compound I-099]	46800 nM
< 10 nM	10 to 100 nM	–	–	–	COc1ccc(CN(Cc2ccn(C)c2)C(=O)OC2CCN(C)CC2)cc1 [Compound I-094]	–
–	–	–	5.78 nM	2.61 nM	CC(C)COc1ccc(CN(Cc2cnn(C)n2)C(=O)OC2CCN(C)CC2)cc1 [Compound I-084]	> 52000 nM
